Measured values taken from EP2462919A2, “Synergistic active agent combination for protecting the skin from IR radiation” (priority 2010, dated 2012).

Assays:
Assay type in all cases: cell-based
MMP1 / TIMP-1 = assay: MMP-1 / TIMP-1 expression ratio (collagen build-up/degradation balance) in fibroblasts after substance treatment and infrared irradiation; details: Monolayer-Fibroblasten, mit Infrarot A bestrahlt, irradiated-only control 1,2
Text: (§1) 1. In vitro Assays hinsichtlich der Expression typischer Altersmarker in kultivierten Fibroblasten nach Substanzgabe und Infrarotbestrahlung
[…] Im Folgenden wurde die Genexpression der zwei Hautalterungsmarker Kollagenase MMP-1, das hinsichtlich der Hautalterung wichtigste Kollagen abbauende Enzym, und des spezifischen Inhibitors der Kollagenase MMP-1, TIMP-1 (tissue inhibitor of metalloproteinase 1), untersucht. Die Genexpressionswerte wurden im Folgenden auf die Werte der jeweiligen unbehandelten Kontrolle relativiert. Als Kontrollen wurden Fibroblasten analysiert, die ausschließlich mit Infrarot bestrahlt wurden.
Entscheidend für die Balance des Auf- und Abbaus von Kollagen in der Dermis ist das Verhältnis zwischen MMP-1 und TIMP-1. Ist dieses Verhältnis größer als der Vergleichswert, so kann von einem vermehrten Abbau durch die Kollagenase ausgegangen werden, ist das Verhältnis kleiner, so wird der Abbau vermehrt verhindert und neues Kollagen kann synthetisiert werden.

Kollagenase MMP-1 = assay: Gene expression of ageing marker MMP-1 in cultured monolayer fibroblasts after substance treatment and infrared irradiation; details: for Expression der Kollagenase MMP-1 (result in words): Fibroblasten, Infrarot-Strahlen 760-1400 nm, after treatment
Text: as §1
(§2) Methode: Monolayer-Fibroblasten wurden 24 Stunden vor und 24 Stunden nach Infrarot-Bestrahlung mit Lipochroman (Dimethylmethoxy Chromanol, 0,005 Gew.-%), Taurin (2-Aminoethansulfonsäure 0,005 Gew.-%) und Kombinationen beider Substanzen behandelt. Im Folgenden wurde die Genexpression der zwei Hautalterungsmarker Kollagenase MMP-1, das hinsichtlich der Hautalterung wichtigste Kollagen abbauende Enzym, und des spezifischen Inhibitors der Kollagenase MMP-1, TIMP-1 (tissue inhibitor of metalloproteinase 1), untersucht. Die Genexpressionswerte wurden im Folgenden auf die Werte der jeweiligen unbehandelten Kontrolle relativiert. Als Kontrollen wurden Fibroblasten analysiert, die ausschließlich mit Infrarot bestrahlt wurden.

[1] = system: TIMP-1 (tissue inhibitor of metalloproteinase 1); assay: Gene expression of ageing marker TIMP-1 in cultured monolayer fibroblasts after substance treatment and infrared irradiation; details: for Expression von TIMP-1 (result in words): Fibroblasten, Bestrahlung mit Infrarot-Strahlen, after treatment
Text: as §1, §2

| Compound | MMP1 / TIMP-1 Ratio (MMP1 / TIMP-1; 0,005 % Lipochroman-6) | fold induction at 0.005 % (Kollagenase MMP-1; Fibroblast, light or radiation study, Monolayer-Fibroblasten, mit Infrarot A bestrahlt, 0,005 % Lipochroman-6, treated 24 h before and 24 h after irradiation, read-out: MMP-1 Regulierung mRNA (Gene Expression versus Sham control)) | Expression der Kollagenase MMP-1 (result in words) (Kollagenase MMP-1) | fold induction at 0.005 % ([1]; Fibroblast, light or radiation study, Monolayer-Fibroblasten, mit Infrarot A bestrahlt, 0,005 % Lipochroman-6, treated 24 h before and 24 h after irradiation, read-out: TIMP-1 Regulierung mRNA (Gene Expression versus Sham control)) | Expression von TIMP-1 (result in words) [1] | MMP1 / TIMP-1 Ratio (MMP1 / TIMP-1; 0,05 % Taurin) | fold induction at 0.05 % (Kollagenase MMP-1; Fibroblast, light or radiation study, Monolayer-Fibroblasten, mit Infrarot A bestrahlt, 0,05 % Taurin, treated 24 h before and 24 h after irradiation, read-out: MMP-1 Regulierung mRNA (Gene Expression versus Sham control)) | fold induction at 0.05 % ([1]; Fibroblast, light or radiation study, Monolayer-Fibroblasten, mit Infrarot A bestrahlt, 0,05 % Taurin, treated 24 h before and 24 h after irradiation, read-out: TIMP-1 Regulierung mRNA (Gene Expression versus Sham control)) |
| --- | --- | --- | --- | --- | --- | --- | --- | --- |
| COc1cc2c(cc1O)CCC(C)(C)O2 [Lipochroman-6, 3,4-Dihydro-7-methoxy-2,2-dimethyl-2H-2 1-benzopyran-6-ol] | 2,7 | 1.75 | erhöhten Expressionswerten | 1.65 | starken Expressionssteigerung | – | – | – |
| NCCS(=O)(=O)O [Taurin, 2-Aminoethansulfonsäure] | – | – | erhöhten Expressionswerten | – | leichten Steigerung der Expression | 1,6 | 2.05 | 1.1 |
